According to paper PMC4190408, “Acylation of Glucagon-Like Peptide-2: Interaction with Lipid Membranes and In Vitro Intestinal Permeability” (PLoS ONE, 2014):
Side chains are listed from the residue outwards. Peptide text beside a SMILES is read from it. * marks the point of attachment. Palmitoyl = CCCCCCCCCCCCCCCC(=O)*; Lauroyl = CCCCCCCCCCCC(=O)*; Octanoyl = CCCCCCCC(=O)*; βAla = NCCC(=O)O

Test system: Caco-2 cells
Experiment: Translocation across Caco-2 cell monolayers
Type: in vitro ADME, human
Conditions: for Caco-2 translocation relative to native GLP-2 (in words): Caco-2 monolayers
Method: Caco-2 cells (passage 40–65) were cultured routinely in DMEM with 10% (v/v) FBS, 1% (v/v) nonessential amino acids, 100 U penicillin, 0.1 mg/mL streptomycin and 2 mM L-glutamine. The Caco-2 cells were seeded at a density of [drawing 60] cells/well on 12 well Transwells plates and grown for 14–16 days in DMEM with media change every second day. The cell layer was confirmed to consist of a single monolayer of cells by fixing and staining the cell layer, and visualizing by fluorescence microscopy.
Before transport experiments, DMEM medium was changed to HBSS buffer (containing 10 mM HEPES and 0.1% (w/v) OVA; 0.4 mL apical side and 1 mL basolateral) and left to equilibrate for 60 minutes. Buffer was replaced apically by 0.4 mL test solution at time zero, and the plates were incubated at [drawing 61] and 5% [drawing 62] with gentle shaking. Test solutions contained 100 [drawing 63] peptide and 0.8 [drawing 64] [ [drawing 65] ]mannitol (a permeability marker). Basolateral samples of 200 [drawing 66] were taken every 15 minutes for 1 hour, and replaced by buffer. The apical test solution and basolateral samples were diluted and analyzed for peptide content with the luciferase assay and for [ [drawing 67] ]mannitol content in a scintillation counter (Packard TopCount), after mixing 1∶1 with scintillation fluid.
The integrity of cell monolayers before, during, and after experiments was verified by measuring the translocation of radioactively labelled mannitol and the transepithelial electrical resistance (TEER), using a Milicell ERS-2 epithelial volt-ohm meter (Millipore, USA). Mannitol translocation and TEER values were not affected by addition of peptide or analogues compared to buffer.
The Caco-2 translocation of peptide or mannitol over Caco-2 layers is expressed as the apparent permeability ( [drawing 72] ), given by: [drawing 73] (6) where [drawing 74] is the steady-state flux of peptide (pmol/s), [drawing 75] is the surface area of the cell monolayer (1.12 [drawing 76] ), and [drawing 77] is the initial sample concentration added to the cell layer.

[1] = apical to basolateral, 1 hour, no enhancer, 3 separate experiments each with 4 repeats

CCCCCCCC(=O)NCCC(=O)NCCCC[C@H](NC(=O)[C@H](CC(N)=O)NC(=O)[C@H](CC(=O)O)NC(=O)[C@H](CC(C)C)NC(=O)[C@@H](NC(=O)[C@@H](NC(=O)[C@H](CC(N)=O)NC(=O)[C@H](CCSC)NC(=O)[C@H](CCC(=O)O)NC(=O)[C@H](CC(=O)O)NC(=O)[C@H](CO)NC(=O)[C@H](Cc1ccccc1)NC(=O)[C@H](CO)NC(=O)CNC(=O)[C@H](CCC(=O)O)NC(=O)[C@H](C)NC(=O)[C@@H](N)Cc1c[nH]cn1)[C@@H](C)O)[C@@H](C)CC)C(=O)N[C@@H](C)C(=O)N[C@@H](C)C(=O)N[C@@H](CCCNC(=N)N)C(=O)N[C@@H](CC(=O)O)C(=O)N[C@@H](Cc1ccccc1)C(=O)N[C@H](C(=O)N[C@@H](CC(N)=O)C(=O)N[C@@H](Cc1c[nH]c2ccccc12)C(=O)N[C@@H](CC(C)C)C(=O)N[C@H](C(=O)N[C@@H](CCC(N)=O)C(=O)N[C@H](C(=O)N[C@@H](CCCNC(=N)N)C(=O)N[C@H](C(=O)N[C@H](C(=O)N[C@@H](CC(=O)O)C(=O)O)[C@@H](C)O)[C@@H](C)CC)[C@@H](C)O)[C@@H](C)CC)[C@@H](C)CC [c8] (H-HAEGSFSDEMNTILDNK([βAla-Octanoyl])AARDFINWLIQTRITD-OH)
Caco-2 translocation relative to native GLP-2 (in words) [1]: increase the translocation relative to native GLP-2

CCCCCCCCCCCC(=O)NCCC(=O)NCCCC[C@H](NC(=O)[C@H](CC(N)=O)NC(=O)[C@H](CC(=O)O)NC(=O)[C@H](CC(C)C)NC(=O)[C@@H](NC(=O)[C@@H](NC(=O)[C@H](CC(N)=O)NC(=O)[C@H](CCSC)NC(=O)[C@H](CCC(=O)O)NC(=O)[C@H](CC(=O)O)NC(=O)[C@H](CO)NC(=O)[C@H](Cc1ccccc1)NC(=O)[C@H](CO)NC(=O)CNC(=O)[C@H](CCC(=O)O)NC(=O)[C@H](C)NC(=O)[C@@H](N)Cc1c[nH]cn1)[C@@H](C)O)[C@@H](C)CC)C(=O)N[C@@H](C)C(=O)N[C@@H](C)C(=O)N[C@@H](CCCNC(=N)N)C(=O)N[C@@H](CC(=O)O)C(=O)N[C@@H](Cc1ccccc1)C(=O)N[C@H](C(=O)N[C@@H](CC(N)=O)C(=O)N[C@@H](Cc1c[nH]c2ccccc12)C(=O)N[C@@H](CC(C)C)C(=O)N[C@H](C(=O)N[C@@H](CCC(N)=O)C(=O)N[C@H](C(=O)N[C@@H](CCCNC(=N)N)C(=O)N[C@H](C(=O)N[C@H](C(=O)N[C@@H](CC(=O)O)C(=O)O)[C@@H](C)O)[C@@H](C)CC)[C@@H](C)O)[C@@H](C)CC)[C@@H](C)CC [c12] (H-HAEGSFSDEMNTILDNK([βAla-Lauroyl])AARDFINWLIQTRITD-OH)
Caco-2 translocation with absorption enhancer, times the native peptide (Caco-2, apical to basolateral, in the presence of EGTA (paracellular) or SDS (transcellular), 2 separate experiments each with 4 repeats): approximately 1.5 | increase in Caco-2 translocation compared to native GLP-2 (factor) (Caco-2 monolayers 14-16 days, apical to basolateral, 100 (unit is a drawing) peptide, HBSS with 10 mM HEPES and 0.1% OVA, 1 hour, luciferase assay read-out, no enhancer, 3 separate experiments each with 4 repeats): ~1.5 | Caco-2 translocation relative to native GLP-2 (in words) [1]: increase the translocation relative to native GLP-2

CCCCCCCCCCCCCCCC(=O)NCCC(=O)NCCCC[C@H](NC(=O)[C@H](CC(N)=O)NC(=O)[C@H](CC(=O)O)NC(=O)[C@H](CC(C)C)NC(=O)[C@@H](NC(=O)[C@@H](NC(=O)[C@H](CC(N)=O)NC(=O)[C@H](CCSC)NC(=O)[C@H](CCC(=O)O)NC(=O)[C@H](CC(=O)O)NC(=O)[C@H](CO)NC(=O)[C@H](Cc1ccccc1)NC(=O)[C@H](CO)NC(=O)CNC(=O)[C@H](CCC(=O)O)NC(=O)[C@H](C)NC(=O)[C@@H](N)Cc1c[nH]cn1)[C@@H](C)O)[C@@H](C)CC)C(=O)N[C@@H](C)C(=O)N[C@@H](C)C(=O)N[C@@H](CCCNC(=N)N)C(=O)N[C@@H](CC(=O)O)C(=O)N[C@@H](Cc1ccccc1)C(=O)N[C@H](C(=O)N[C@@H](CC(N)=O)C(=O)N[C@@H](Cc1c[nH]c2ccccc12)C(=O)N[C@@H](CC(C)C)C(=O)N[C@H](C(=O)N[C@@H](CCC(N)=O)C(=O)N[C@H](C(=O)N[C@@H](CCCNC(=N)N)C(=O)N[C@H](C(=O)N[C@H](C(=O)N[C@@H](CC(=O)O)C(=O)O)[C@@H](C)O)[C@@H](C)CC)[C@@H](C)O)[C@@H](C)CC)[C@@H](C)CC [c16] (H-HAEGSFSDEMNTILDNK([βAla-Palmitoyl])AARDFINWLIQTRITD-OH)
Caco-2 translocation in the presence of SDS (in words) (Caco-2, apical to basolateral, SDS): remains lower than for the c12 peptide | increase in peptide permeability with SDS compared to peptide alone (Caco-2, apical to basolateral, SDS (transcellular enhancer), 2 separate experiments each with 4 repeats): the increase is greater | Caco-2 translocation relative to native GLP-2 (in words) [1]: decreases it slightly
